Data as given in patent US20060009435A1, “Synthesis and powder preparation of fluticasone propionate” (priority 2004, published 2006).
Several values for one entry are separate records, joined by “and”; a condition that tells them apart may be missing. Identical values can stand only once. Entries after “also recorded” stand apart in the source; their conditions may differ. Like-named read-outs stand apart in the source and are kept apart here.

Assays:
Assay type in all cases: physicochemical
[1] = Particle size distribution by dynamic light scattering (Malvern Mastersizer 2000); details: for particle size D(0.10) / particle size D(0.20) / particle size D(0.50) / particle size D(0.80) / particle size D(0.90) / particle size D(0.95) / particle size D(0.98) / particle size D(0.99) / particle size D(1.00): dynamic light scattering; for Particle size distribution D(v, 0.1), 0.1 quantile / Particle size distribution D(v, 0.5), 0.5 quantile / Particle size distribution D(v, 0.9), 0.9 quantile / Particle size distribution D(v, 0.95), 0.95 quantile: light scattering
Procedure: Particle size was measured on a dynamic light scattering device by Malvern model Mastersizer 2000, using a measuring range of 0.02-2000 μm, accuracy level of 1% at the median, helium neon laser as a red light source, and solid state light source as a blue light source. Particle size distributions are presented as the average particle size of specified percentiles, including the flanking 0.1 and 0.9 quantiles and the median 0.5 quantile of the overall particle size distribution versus volume curve.

[2] = Observation of powder flow, agglomeration tendency and electrostatic charge
[3] = SEM micrograph of particle shape
[4] = X-ray powder diffraction of the powder (crystalline or amorphous morphology)
Procedure: X-ray diffraction data were acquired using a PHILIPS X-ray diffractometer model PW1050-70 set at 40 kV, 28 mA, using 1.54178 Å (Kα), diversion slit of 1°, receiving slit of 0.2 mm, scattering slit of 1° and a graphite monochromator.

Particle size median [1] | particle size D(0.10) [1] [micron] | particle size D(0.20) [1] [micron] | particle size D(0.50) [1] [microns] | particle size D(0.80) [1] [microns] | particle size D(0.90) [1] [microns] | particle size D(0.95) [1] [microns] | particle size D(0.98) [1] [microns] | particle size D(0.99) [1] [microns] | particle size D(1.00) [1] [microns] | Particle size distribution D(v, 0.1), 0.1 quantile [1] [μ] | Particle size distribution D(v, 0.5), 0.5 quantile [1] | Particle size distribution D(v, 0.9), 0.9 quantile [1] | Particle size distribution D(v, 0.95), 0.95 quantile [1] [μ] | Powder characteristics (flow and morphology of the powder) [2] | SMILES | Electrostatic charge of the powder [2] | Tendency to agglomerate [2] | Particle shape (SEM micrograph) [3] | Morphology by X-ray powder diffraction pattern [4] | further results
 |  |  |  |  |  |  |  |  |  |  |  |  |  |  | CCC(=O)O[C@]1(C(=O)SCF)[C@H](C)C[C@H]2[C@@H]3C[C@H](F)C4=CC(=O)C=C[C@]4(C)[C@@]3(F)[C@@H](O)C[C@@]21C [Example 12, fluticasone propionate] | tended to accumulate a considerable amount of static charge; also recorded: tended to accumulate a considerable amount of electrostatic charge | generally tended to agglomerate; also recorded: high tendency to agglomerate | irregular shape of the particles; also recorded: irregular jaggedly shaped particles |  | particle size distribution in words ([1]; air-jet milled, data not shown): either too many oversized particles or too many undersized particles; also recorded: unsatisfactory size distribution; Particle shape (SEM micrograph) ([3]; listed as Reference Example 12): irregular jaggedly shape
Particle size median: 2.21 microns | 0.95 | 1.31 | 2.21 | 3.43 | 4.23 | 4.96 | 5.82 | 6.37 | 8.11 | 0.95 | 2.21 μ | 4.23 μ | 4.96 | Free flowing crystalline powder | CCC(=O)O[C@]1(C(=O)SCF)[C@H](C)C[C@H]2[C@@H]3C[C@H](F)C4=CC(=O)C=C[C@]4(C)[C@@]3(F)[C@@H](O)C[C@@]21C [Example 13, fluticasone propionate] | did not exhibit any static electricity | did not exhibit a tendency to agglomerate; also recorded: did not exhibit any tendency to agglomerate; also recorded: that does not tend to agglomerate | regular spherical shape and have smooth surface; also recorded: uniform spherical shape | crystalline morphology | 
Particle size median: 2.14 microns; | 0.96 | 1.27 | 2.14 | 3.44 | 4.36 | 5.27 | 6.44 | 7.32 | 13.54 | 0.96 | 2.14 μ | 4.36 μ | 5.27 | Free flowing crystalline powder | CCC(=O)O[C@]1(C(=O)SCF)[C@H](C)C[C@H]2[C@@H]3C[C@H](F)C4=CC(=O)C=C[C@]4(C)[C@@]3(F)[C@@H](O)C[C@@]21C [Example 14, fluticasone propionate] |  | did not exhibit a tendency to agglomerate; also recorded: that does not tend to agglomerate |  |  | 
Particle size median 2.67 microns; | 1.06 | 1.52 | 2.67 | 4.51 | 5.95 | 7.51 | 9.81 | 11.67 |  | 1.06 | 2.67 μ |  |  | Free flowing crystalline powder | CCC(=O)O[C@]1(C(=O)SCF)[C@H](C)C[C@H]2[C@@H]3C[C@H](F)C4=CC(=O)C=C[C@]4(C)[C@@]3(F)[C@@H](O)C[C@@]21C [Example 15, fluticasone propionate] |  | did not exhibit a tendency to agglomerate; also recorded: that does not tend to agglomerate |  |  | 
Particle size median 4.10 microns; | 1.90 | 2.46 | 4.11 | 6.70 | 8.40 | 9.86 | 11.35 | 12.10 | 14.24 | 1.90 | 4.11 μ and 4.10 μ | 8.40 μ and 8.39 μ | 9.86 | Partially amorphous powder | CCC(=O)O[C@]1(C(=O)SCF)[C@H](C)C[C@H]2[C@@H]3C[C@H](F)C4=CC(=O)C=C[C@]4(C)[C@@]3(F)[C@@H](O)C[C@@]21C [Example 16, fluticasone propionate] |  |  |  | low level of a crystalline morphology; also recorded: mostly amorphous morphology | particle size of the powder [1]: less than 10 microns
